Read-outs that look alike come from different tables or passages of the source.
How the values were obtained:
L. major [1] = experiment: ChEMBL dataset of pIC50 values against L. major used for the RF model (Table S1); format: cell-based, Leishmania major; also: call rule not given here
L. major [2] = tested on: L. major; parameters: method as in ChEMBL; conditions: ref ChEMBL, cited from earlier work
[3] = Active/Inactive class assigned to the ChEMBL pIC50 value for Random forest model construction, ref ChEMBL
[4] = ChemBL structures with pIC50 values used for Random forest model construction, L. major
[5] = Active/Inactive class assigned to ChemBL structures for Random forest model construction (Table S1)
[6] = ChemBL structures with pIC50 values used for Random forest model construction (Table S1)

Row | SMILES | Outcome (L. major [1]; [3]) | pIC50 Value (L. major [2]; [4]) | Outcome (L. major [1]; [5]) | pIC50 Value (L. major [2]; [6])
1 | C[C@H]1COC2=C1C(=O)C(=O)c1c2ccc2c1C(=O)CCC2(C)C [CHEMBL519694] | Inactive | 4.59 | – | –
2 | Cn1c([N+](=O)[O-])cnc1-c1nnc(N2CCN(C(=O)c3ccc(Br)s3)CC2)s1 [CHEMBL520309] | Inactive | 4.80 | – | –
3 | COc1cc(OC)c2c(C)[n+](-c3ccc(Br)cc3)c(C)cc2c1.F[B-](F)(F)F [CHEMBL520594] | Inactive | 4.71 | – | –
4 | COc1cc(OC)c2c(C)[n+](-c3ccc(C)cc3)c(C)cc2c1 [CHEMBL520612] | – | – | Active | 5.58
5 | COc1cc2c(c(OC)c1)C(C)N(c1cccc3ccccc13)C(C)C2 (stereo not shown) [CHEMBL520770] | Inactive | 4.18 | – | –
6 | Cn1c([N+](=O)[O-])cnc1-c1nnc(N2CCN(C(=O)c3ccc(Cl)cc3)CC2)s1 [CHEMBL520958] | Inactive | 4.37 | – | –
7 | COc1cc(OC)c2c(C)[n+](-c3c(C)cccc3C)c(C)cc2c1.F[B-](F)(F)F [CHEMBL521247] | – | – | Active | 5.46
8 | Cn1c([N+](=O)[O-])cnc1-c1nnc(N2CCN(C(=O)c3ccc(Cl)s3)CC2)s1 [CHEMBL521458] | Active | 5.03 | – | –
9 | C/C=C(\C)C(=O)NC1=CC[C@@]2(C)C(=CC[C@H]3[C@@H]4CC[C@H]([C@H](C)NC)[C@@]4(C)CC[C@@H]32)C1=O [CHEMBL525190] | Inactive | 4.67 | – | –
10 | CCCCOc1ccc(-c2nc3ccccc3[nH]2)cc1 [CHEMBL531335] | – | – | Active | 5.61
11 | COc1cccc(C(=O)/C=C/c2ccc(-n3ccnc3)cc2)c1 [CHEMBL569119] | – | – | Active | 5.49
12 | O=C(/C=C/c1ccc(-n2ccnc2)cc1)c1ccccc1Br [CHEMBL569130] | – | – | Active | 5.61
13 | O=C(/C=C/c1ccc(-n2ccnc2)cc1)c1ccccc1Cl [CHEMBL569355] | – | – | Active | 5.52
14 | O=C(/C=C/c1ccc(-n2ccnc2)cc1)c1ccc(Cl)cc1 [CHEMBL569356] | – | – | Active | 5.53
15 | O=C(/C=C/c1ccc(-n2ccnc2)cc1)c1ccc(F)c(F)c1 [CHEMBL569571] | – | – | Active | 5.54
16 | O=C(/C=C/c1ccc(-n2ccnc2)cc1)c1ccc(F)cc1 [CHEMBL570258] | – | – | Active | 5.61
17 | O=C(/C=C/c1ccc(-n2ccnc2)cc1)c1ccc(I)cc1 [CHEMBL570445] | – | – | Active | 5.64
18 | COc1ccc(C(=O)/C=C/c2ccc(-n3ccnc3)cc2)cc1 [CHEMBL570461] | – | – | Active | 5.49
19 | COc1ccc(C(=O)/C=C/c2ccc(-n3ccnc3)cc2)cc1OC [CHEMBL570484] | – | – | Active | 5.61
20 | O=C(/C=C/c1ccc(-n2ccnc2)cc1)c1ccc(Br)cc1 [CHEMBL570693] | – | – | Active | 5.61
21 | O=C(/C=C/c1ccc(-n2ccnc2)cc1)c1ccc(Cl)c(Cl)c1 [CHEMBL570738] | – | – | Active | 5.54
22 | O=C(/C=C/c1ccc(-n2ccnc2)cc1)c1cc(Cl)ccc1Cl [CHEMBL570739] | – | – | Active | 5.54

Row | SMILES | Outcome (L. major [1]; [3]) | pIC50 Value (L. major [2]; [4]) | Outcome (L. major [1]; [5]) | pIC50 Value (L. major [2]; [6])
23 | O=C(/C=C/c1ccc(-n2ccnc2)cc1)c1ccc(Cl)cc1Cl [CHEMBL570849] | – | – | Active | 5.68
24 | O=C(/C=C/c1ccc(-n2ccnc2)cc1)c1cccc(F)c1F [CHEMBL570959] | – | – | Active | 5.57
25 | O=C(/C=C/c1ccc(-n2ccnc2)cc1)c1c(F)cccc1F [CHEMBL570962] | – | – | Active | 5.51
26 | O=C(/C=C/c1ccc(-n2ccnc2)cc1)c1c(Cl)cccc1Cl [CHEMBL571070] | – | – | Active | 5.71
27 | O=C(/C=C/c1ccc(-n2ccnc2)cc1)c1ccccc1F [CHEMBL571071] | – | – | Active | 5.47
28 | O=C(/C=C/c1ccc(-n2ccnc2)cc1)c1ccccc1 [CHEMBL571178] | – | – | Active | 5.48
29 | O=C(/C=C/c1ccc(-n2ccnc2)cc1)c1cccc(O)c1 [CHEMBL571179] | – | – | Active | 5.48
30 | O=C(/C=C/c1ccc(-n2ccnc2)cc1)c1ccc(Cl)c(Cl)c1Cl [CHEMBL571575] | – | – | Active | 5.78
31 | CC[C@H](CO)Nc1nc(NCc2ccccc2O)c2ncn(C(C)C)c2n1 [CHEMBL1094304] | Inactive | 4.33 | – | –
32 | COc1cc(C(=O)/C=C/C2=Cc3cc(Cl)ccc3OC2)cc(OC)c1OC [CHEMBL1094315] | – | – | Active | 5.69
33 | O=C(/C=C/c1ccccc1Br)C1=Cc2cc(Cl)ccc2OC1 [CHEMBL1094316] | – | – | Active | 5.88
34 | Cc1ccc(/C=C/C(=O)C2=Cc3cc(Cl)ccc3OC2)cc1 [CHEMBL1094967] | – | – | Active | 5.56
35 | COc1ccc(OC)c(/C=C/C(=O)C2=Cc3cc(Cl)ccc3OC2)c1 [CHEMBL1095286] | – | – | Active | 5.52
36 | COc1cccc(/C=C/C(=O)C2=Cc3cc(Cl)ccc3OC2)c1OC [CHEMBL1095287] | – | – | Active | 5.55
37 | O=C(/C=C/C1=Cc2cc(Cl)ccc2OC1)c1ccccc1F [CHEMBL1097964] | – | – | Active | 5.65
38 | O=C(/C=C/C1=Cc2cc(Cl)ccc2OC1)c1ccccc1Cl [CHEMBL1097965] | – | – | Active | 5.91
39 | O=C(/C=C/C1=Cc2cc(Cl)ccc2OC1)c1ccc(Cl)cc1Cl [CHEMBL1097966] | – | – | Active | 5.72
40 | O=[N+]([O-])c1ccc2nc(-c3ccccc3)[nH]c2c1 [CHEMBL1164403] | – | – | Active | 5.48
41 | O=CN/N=C/c1ccccc1O [CHEMBL1172261] | Inactive | 3.84 | – | –
42 | C[C@]12CC[C@H](O)C[C@@H]1CC[C@@H]1[C@@H]2CC[C@@]2(C)[C@H]1CC[C@@H]2[C@@](C)(O)c1ccncc1 [CHEMBL1214241] | Inactive | 4.92 | – | –
43 | C[C@]12CC[C@H](O)C[C@@H]1CC[C@@H]1[C@@H]2CC[C@@]2(C)[C@H]1CC[C@@H]2[C@@](C)(O)c1ccncc1Cl [CHEMBL1214242] | Active | 5.10 | – | –
44 | CCC(=O)N1CCCCC1[C@](C)(O)[C@H]1CC[C@H]2[C@@H]3CC[C@H]4C[C@@H](O)CC[C@]4(C)[C@H]3CC[C@@]21C (stereo partly shown) [CHEMBL1214310] | Inactive | 4.27 | – | –

Row | SMILES | Outcome (L. major [1]; [3]) | pIC50 Value (L. major [2]; [4]) | Outcome (L. major [1]; [5]) | pIC50 Value (L. major [2]; [6])
45 | C[C@]12CC[C@H](O)C[C@@H]1CC[C@@H]1[C@@H]2CC[C@@]2(C)[C@H]1CC[C@@H]2[C@@](C)(O)c1ccccn1 [CHEMBL1214311] | Inactive | 4.00 | – | –
46 | C[C@]12CC[C@H](O)C[C@@H]1CC[C@@H]1[C@@H]2CC[C@@]2(C)[C@H]1CC[C@@H]2[C@@](C)(O)c1cccnc1 [CHEMBL1214312] | Inactive | 4.00 | – | –
47 | CN1CCN(c2ccnc3cc(Cl)ccc23)CC1 [CHEMBL1255667] | Inactive | 4.00 | – | –
48 | c1ccc2c(-c3cnc4n3CCS4)c[nH]c2c1 [CHEMBL1255759] | Inactive | 4.11 | – | –
49 | CCc1nnc(N2C(=O)C3C4C=CC(C4)C3C2=O)s1 (stereo not shown) [CHEMBL1255760] | Inactive | 4.00 | – | –
50 | Cc1ccc2c(n1)[nH]c1ccccc12 [CHEMBL1255761] | Inactive | 4.01 | – | –
51 | CCOC(=O)C/C(=N/O)c1nnn[nH]1 [CHEMBL1255762] | Inactive | 4.00 | – | –
52 | Cc1ccc2nc(CCC3CCCCC3)[nH]c2c1 [CHEMBL1255797] | Inactive | 4.63 | – | –
53 | COc1ccc2c(=O)c(C(=O)O)csc2c1 [CHEMBL1255798] | Inactive | 4.00 | – | –
54 | Cc1ccc(C(=O)N2CCN(c3ccnc4cc(Cl)ccc34)CC2)cc1 [CHEMBL1256729] | Inactive | 4.15 | – | –
55 | CC(C)(C)c1ccc(CN2CCN(c3ccnc4cc(Cl)ccc34)CC2)cc1 [CHEMBL1256730] | Inactive | 4.21 | – | –
56 | Clc1ccc2c(N3CCN(Cc4ccccc4)CC3)ccnc2c1 [CHEMBL1256765] | Inactive | 4.21 | – | –
57 | Clc1ccc2c(N3CCN(Cc4ccc(-c5ccccc5)cc4)CC3)ccnc2c1 [CHEMBL1256766] | Inactive | 4.49 | – | –
58 | COc1ccc(-c2nnc3sc(-c4ccc(F)cc4)nn23)cc1 [CHEMBL1256800] | Inactive | 4.00 | – | –
59 | Clc1ccc(C2=NN3C(c4ccccc4)=NNC3S2)c(Cl)c1 (stereo not shown) [CHEMBL1256801] | Inactive | 4.00 | – | –
60 | Cc1ccccc1Cc1nnc2sc(-c3ccc(Cl)cc3)nn12 [CHEMBL1256802] | Inactive | 4.00 | – | –
61 | CCCc1cc(-c2nn3c(-c4ccccc4)nnc3s2)n(CC)n1 [CHEMBL1256824] | Inactive | 4.00 | – | –
62 | Fc1cccc(Cl)c1Cc1nn2c(-c3ccccc3)nnc2s1 [CHEMBL1256825] | Inactive | 4.00 | – | –
63 | CCn1nc(C)cc1-c1nnc2sc(-c3ccc(C)cc3)nn12 [CHEMBL1256826] | Inactive | 4.05 | – | –
64 | Cc1cc(C)nc(SCc2nn3c(-c4ccccc4)nnc3s2)n1 [CHEMBL1256856] | Inactive | 4.00 | – | –
65 | CCn1nc(C)cc1-c1nnc2sc(Cc3c(F)cccc3Cl)nn12 [CHEMBL1256857] | Inactive | 4.00 | – | –
